Results published in patent US8088800B2, “4-(5-aminomethyl)-indole-1-ylmethyl)-benzamide derivatives and related compounds as opioid receptor antagonists for the treatment of obesity” (Eli Lilly and Company, priority 2004, dated 2012).

Assays:
[1] = target: delta opioid receptor (Homo sapiens, UniProt P41143); test: opioid receptor binding assay (Ki), delta
[2] = target: kappa opioid receptor (Homo sapiens, UniProt P41145); test: opioid receptor binding assay (Ki), kappa
[3] = target: T1, cloned human kappa opioid receptor (Homo sapiens, UniProt P41145); test: GTP-γ-S binding assay, antagonist potency (Kb), kappa; format: biochemical; details: functional antagonist potency vs U69593 300 nM; Cheng-Prusoff
T1 construct: expressed in transfected cells
T1 sequence (P41145 whole entry): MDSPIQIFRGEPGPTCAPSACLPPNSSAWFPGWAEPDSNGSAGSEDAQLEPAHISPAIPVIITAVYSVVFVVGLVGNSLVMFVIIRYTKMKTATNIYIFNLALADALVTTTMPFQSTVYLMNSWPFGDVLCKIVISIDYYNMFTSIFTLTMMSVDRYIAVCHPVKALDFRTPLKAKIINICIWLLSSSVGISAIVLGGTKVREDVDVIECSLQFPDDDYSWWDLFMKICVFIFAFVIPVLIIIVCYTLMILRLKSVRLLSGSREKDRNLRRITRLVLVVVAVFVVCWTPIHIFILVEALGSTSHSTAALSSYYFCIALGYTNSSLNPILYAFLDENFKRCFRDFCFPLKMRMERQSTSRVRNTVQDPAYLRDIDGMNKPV
Experimental: (§1) The functional antagonist potency (Kb) of the sample compounds was determined using the GTPγS binding assay. GTPgS-based functional assays provide an in vitro measure of the activity of opioid agonists and antagonists. Opioid reference compounds or test compound are incubated with membrane homogenate from cells expressing the cloned human mu, kappa or delta opioid receptor and radiolabeled [35S]GTPgS. If the compound activates the opioid receptor, an increase in the binding of radiolabeled GTPgS is observed. […] These tests provide an in vitro measurement of the activity of the compound at human opioid receptors.
(§2) An SPA-based GTP-γ-S assay format was developed based on previous opioid (Emmerson et al., J. Pharm Exp Ther 278,1121,1996; Horng et al., Society for Neuroscience Abstracts, 434.6, 2000) and muscarinic (DeLapp et al., JPET 289, 946, 1999) assay formats. Membranes were resuspended in 20 mM HEPES, 100 mM NaCl, 5 mM MgCl2, 1 mM DTT, and 1 mM EDTA. Fifty (50) […] of GTP-γ-[35S], compound, membrane suspension (20 microgram/well), and wheat germ agglutinin coated SPA beads (1 mg/well) were added to clear bottom 96 well assay plates. GDP ([…]) was added to the membrane solution prior to addition to the assay plates. Plates were sealed and incubated for four hours at room temperature then placed in a refrigerator overnight to allow the beads to settle. Signal stability at 4° C. was determined to be >60 hours. Plates were warmed to room temperature and counted in a Wallac Microbeta scintillation counter. For antagonist assays, specific agonists were added at the following concentrations: (MOR) DAMGO 1 micromolar, (DOR) DPDPE 30 nM, (KOR) U69593 300 nM. Kb's were determined by Cheng-Prusoff equation (see Cheng and Prusoff, Biochem. Pharmacol. 22, 3099, 1973).

[4] = target: mu opioid receptor (Homo sapiens, UniProt P35372); test: opioid receptor binding assay (Ki), mu
Chain of mu opioid receptor (P35372 whole entry): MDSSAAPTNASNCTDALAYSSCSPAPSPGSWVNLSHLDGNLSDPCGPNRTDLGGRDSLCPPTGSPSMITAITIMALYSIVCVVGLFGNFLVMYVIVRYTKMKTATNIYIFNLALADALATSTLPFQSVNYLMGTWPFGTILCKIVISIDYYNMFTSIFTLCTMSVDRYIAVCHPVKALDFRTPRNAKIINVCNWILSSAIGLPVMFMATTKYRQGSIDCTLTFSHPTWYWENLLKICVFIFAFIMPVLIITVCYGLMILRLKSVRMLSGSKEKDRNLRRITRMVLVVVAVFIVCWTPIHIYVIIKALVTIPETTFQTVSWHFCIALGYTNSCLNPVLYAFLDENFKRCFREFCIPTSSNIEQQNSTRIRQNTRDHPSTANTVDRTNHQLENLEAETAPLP

[5] = target: T2, cloned human mu opioid receptor (Homo sapiens, UniProt P35372); test: GTP-γ-S binding assay, antagonist potency (Kb), mu; format: biochemical; details: functional antagonist potency vs DAMGO 1 micromolar; Cheng-Prusoff
T2 construct: expressed in transfected cells
T2 sequence (P35372 whole entry): as above
Experimental: as §1, §2

[6] = target: T3, cloned human delta opioid receptor (Homo sapiens, UniProt P41143); test: GTP-γ-S binding assay, antagonist potency (Kb), delta; format: biochemical; details: functional antagonist potency vs DPDPE 30 nM; Cheng-Prusoff
T3 construct: expressed in transfected cells
T3 sequence (P41143 whole entry): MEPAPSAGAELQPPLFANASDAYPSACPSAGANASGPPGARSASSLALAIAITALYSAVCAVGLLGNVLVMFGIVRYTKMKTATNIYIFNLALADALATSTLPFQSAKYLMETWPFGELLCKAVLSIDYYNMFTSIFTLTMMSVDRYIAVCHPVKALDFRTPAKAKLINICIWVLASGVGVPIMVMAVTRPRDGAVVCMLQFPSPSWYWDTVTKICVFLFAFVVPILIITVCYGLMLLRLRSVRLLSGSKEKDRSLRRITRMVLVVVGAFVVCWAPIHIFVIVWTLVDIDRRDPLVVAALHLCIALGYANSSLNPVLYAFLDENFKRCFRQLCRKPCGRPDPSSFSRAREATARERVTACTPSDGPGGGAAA
Experimental: as §1, §2

Chain of delta opioid receptor (P41143 whole entry): as above
Chain of kappa opioid receptor (P41145 whole entry): as the sequence (P41145 whole entry) above

Compound	Ki [1] [nM]	Ki [2] [nM]	Kb [3] [nM]	Ki [4] [nM]	Kb [5] [nM]	Kb [6] [nM]
NC(=O)c1ccc(Cn2ccc3cc(CNCCc4cccs4)ccc32)cc1 [Example 2, 4-{5-[(2-Thiophen-2-yl-ethylamino)-methyl]-indol-1-ylmethyl}-benzamide]	154	411	50.1	21.3	2	15
NC(=O)c1ccc(CN2CCc3cc(CNCCc4cccs4)ccc32)cc1 [Example 4, 4-{5-[(2-Thiophen-2-yl-ethylamino)-methyl]-2,3-dihydro-indol-1-ylmethyl}-benzamide]	111	226	> 42	13.4	2.1	19.2
CC(C)CCNCc1ccc2c(c1)CCN2Cc1ccc(C(N)=O)cc1 [Example 5, 4-{5-[(3-Methyl-butylamino)-methyl]-2,3-dihydro-indol-1-ylmethyl}-benzamide]	259	387	> 42	24.5	3.3	24.3
CC(C)(C)CCNCc1ccc2c(c1)CCN2Cc1ccc(C(N)=O)cc1 [Example 6, 4-{5-[(3,3-Dimethyl-butylamino)-methyl]-2,3-dihydro-indol-1-ylmethyl}-benzamide]	193	340	21.4	20.5	4	20.3
NC(=O)c1ccc(Cn2ccc3cc(CNCCCc4ccccc4)ccc32)cc1 [Example 8, 4-{5-[(3-Phenyl-propylamino)-methyl]-indol-1-ylmethyl}-benzamide]	633	304		59.3		
NC(=O)c1ccc(Cn2ccc3cc(CNCCc4ccccc4F)ccc32)cc1 [Example 9, 4-(5-{[2-(2-Fluoro-phenyl)-ethylamino]-methyl}-indol-1-ylmethyl)-benzamide]	144	332	> 35	20.8	6.2	20.7
COc1ccc(CCNCc2ccc3c(ccn3Cc3ccc(C(N)=O)cc3)c2)cc1 [Example 11, 4-(5-{[2-(4-Methoxy-phenyl)-ethylamino]-methyl}-indol-1-ylmethyl)-benzamide]	2550	1110	> 42	319	8.4	> 50

Further lines, results first:

Ki [1] [nM]	Ki [2] [nM]	Kb [3] [nM]	Ki [4] [nM]	Kb [5] [nM]	Kb [6] [nM]	Compound
170	362	59.9	18.1	4.2	21.7	CC(C)CCNCc1ccc2c(ccn2Cc2ccc(C(N)=O)cc2)c1 [Example 1, 4-{5-[(3-Methyl-butylamino)-methyl]-indol-1-ylmethyl}-benzamide]
98.2	106	50.5	15.6	4.4	19.2	CC(C)(C)CCNCc1ccc2c(ccn2Cc2ccc(C(N)=O)cc2)c1 [Example 3, 4-{5-[(3,3-Dimethyl-butylamino)-methyl]-indol-1-ylmethyl}-benzamide]
176	345	> 35	22.1	5.8	27.4	CCCCCCNCc1ccc2c(ccn2Cc2ccc(C(N)=O)cc2)c1 [Example 7, 4-(5-Hexylaminomethyl-indol-1-ylmethyl)-benzamide]
> 5000	3190		478			NC(=O)c1ccc(Cn2ccc3cc(CNCCO)ccc32)cc1 [Example 10, 4-{5-[(2-Hydroxy-ethylamino)-methyl]-indol-1-ylmethyl}-benzamide]
